Drawing on US20070049593A1 (priority 2004, published 2007), this text covers IC50 for 25 molecules.

Where a name gives a salt, the structure may show the parent alone. Read-outs that look alike come from different tables or passages of the source.

This assay concerns the target T1, HCV polymerase (Hepatitis C virus genotype 1b, UniProt P26663).
T1 construct: a region encoding NS5B (J Virol 1991 March, 65(3), 1105-13, 544 amino acids after deletion of 47 amino acids on the C-terminal); 6xHis (C); made in house; host or cells: Escherichia coli
Kind of assay: biochemical. Set-up: species or system HCV BK strain. The gist of the method: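 Recombinant HCV BK-strain NS5B (C-terminal 47 aa deleted, His6-tagged, E. coli), 0.5 μg/ml, run with 5 μg/ml in vitro-transcribed RNA template (polyU/3′X), ATP/GTP/CTP 50 μM, UTP 2 μM plus [3H]UTP, pH 7.5, 25° C, 90 min. TCA-precipitated RNA counted by scintillation; IC50 from activity with vs without compound.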

[1] abbreviates: 25° C., 90 min, [5,6-3H]UTP incorporation into RNA, read-out: HCV polymerase inhibitory activity IC50.

T1 sequence (P26663 2420-2963): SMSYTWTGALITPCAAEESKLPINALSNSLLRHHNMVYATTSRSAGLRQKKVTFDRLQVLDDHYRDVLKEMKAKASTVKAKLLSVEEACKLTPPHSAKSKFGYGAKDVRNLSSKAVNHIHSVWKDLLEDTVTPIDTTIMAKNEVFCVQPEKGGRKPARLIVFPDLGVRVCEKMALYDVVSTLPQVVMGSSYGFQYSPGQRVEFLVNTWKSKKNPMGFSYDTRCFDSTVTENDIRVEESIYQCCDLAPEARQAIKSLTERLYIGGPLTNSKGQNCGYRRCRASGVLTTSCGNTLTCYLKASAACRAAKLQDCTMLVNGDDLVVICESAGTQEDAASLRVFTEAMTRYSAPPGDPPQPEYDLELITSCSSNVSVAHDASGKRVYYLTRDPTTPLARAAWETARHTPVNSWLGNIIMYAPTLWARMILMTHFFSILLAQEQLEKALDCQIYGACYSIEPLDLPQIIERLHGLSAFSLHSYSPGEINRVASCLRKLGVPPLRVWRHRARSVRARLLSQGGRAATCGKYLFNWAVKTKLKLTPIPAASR

As a reminder, the IC50 is the concentration that inhibits the measured activity by half. Molecule `CCC1CCCN(CCCN2CCn3c(c(C4CCCCC4)c4ccc(C(=O)O)cc43)-c3ccc(Cl)cc32)C1` (stereo not shown) [Example 1-372, 3-chloro-13-cyclohexyl-5-[3-(3-ethylpiperidin-1-yl)propyl]-6,7-dihydro-5H-benzo[5,6][1,4]diazepino[7,1-a]indole-10-carboxylic acid dihydrochloride] had an IC50 below 100 nM. Regarding `CC(C)COc1ccc2c(c1)N(CCN1CCCCC1)CCn1c-2c(C2CCCCC2)c2ccc(C(=O)O)cc21` [Example 1-373, 13-cyclohexyl-3-isobutoxy-5-[2-(piperidin-1-yl)ethyl]-6,7-dihydro-5H-benzo[5,6][1,4]diazepino[7,1-a]indole-10-carboxylic acid dihydrochloride], under setting [1], the IC50 was below 100 nM. For the molecule `Cc1cc(COc2ccc3c(c2)N(CCN(C)C)CCn2c-3c(C3CCCCC3)c3ccc(C(=O)O)cc32)no1` [Example 1-374, 13-cyclohexyl-5-(2-dimethylaminoethyl)-3-(5-methylisoxazol-3-ylmethoxy)-6,7-dihydro-5H-benzo[5,6][1,4]diazepino[7,1-a]indole-10-carboxylic acid dihydrochloride], the IC50 is below 100 nM. Turning to `CC(C)COc1ccc2c(c1)N(CCN1CCCC(C)C1)CCn1c-2c(C2CCCCC2)c2ccc(C(=O)O)cc21` (stereo not shown) [Example 1-375, 13-cyclohexyl-3-isobutoxy-5-[2-(3-methylpiperidin-1-yl)ethyl]-6,7-dihydro-5H-benzo[5,6][1,4]diazepino[7,1-a]indole-10-carboxylic acid dihydrochloride], the IC50 was below 100 nM. Same read-out and setting: next, `CCC1CCCN(CCN2CCn3c(c(C4CCCCC4)c4ccc(C(=O)O)cc43)-c3ccc(OCC(C)C)cc32)C1` (stereo not shown) [Example 1-376, 13-cyclohexyl-5-[2-(3-ethylpiperidin-1-yl)ethyl]-3-isobutoxy-6,7-dihydro-5H-benzo[5,6][1,4]diazepino[7,1-a]indole-10-carboxylic acid dihydrochloride]: below 100 nM; `COCC1CCCN(CCN2CCn3c(c(C4CCCCC4)c4ccc(C(=O)O)cc43)-c3ccc(OCC(C)C)cc32)C1` (stereo not shown) [Example 1-377, 13-cyclohexyl-3-isobutoxy-5-[2-(3-methoxymethylpiperidin-1-yl)ethyl]-6,7-dihydro-5H-benzo[5,6][1,4]diazepino[7,1-a]indole-10-carboxylic acid dihydrochloride]: below 100 nM; `CCN(CC)CCCN1CCn2c(c(C3CCCCC3)c3ccc(C(=O)O)cc32)-c2ccc(C)cc21` [Example 1-378, 13-cyclohexyl-5-(3-diethylaminopropyl)-3-methyl-6,7-dihydro-5H-benzo[5,6][1,4]diazepino[7,1-a]indole-10-carboxylic acid dihydrochloride]: below 100 nM.

On to `O=C(O)c1ccc2c(C3CCCCC3)c3n(c2c1)CCN(CCC1CCCN(C2CCCCC2)C1)c1cc(Cl)ccc1-3` (stereo not shown) [Example 1-379, 3-chloro-13-cyclohexyl-5-[2-(1-cyclohexylpiperidin-3-yl)ethyl]-6,7-dihydro-5H-benzo[5,6][1,4]diazepino[7,1-a]indole-10-carboxylic acid dihydrochloride], for which the IC50 was below 100 nM. The same measure, in the same setting: next, `Cc1ccc2c(c1)N(CCC1CCCN(C3CCCC3)C1)CCn1c-2c(C2CCCCC2)c2ccc(C(=O)O)cc21` (stereo not shown) [Example 1-380, 13-cyclohexyl-5-[2-(1-cyclopentylpiperidin-3-yl)ethyl]-3-methyl-6,7-dihydro-5H-benzo[5,6][1,4]diazepino[7,1-a]indole-10-carboxylic acid dihydrochloride]: below 100 nM.

In the case of `CC(C)c1ccc2c(c1)N(CCC1CCCN(C(C)C)C1)CCn1c-2c(C2CCCCC2)c2ccc(C(=O)O)cc21` (stereo not shown) [Example 1-381, 13-cyclohexyl-3-isopropyl-5-[2-(1-isopropylpiperidin-3-yl)ethyl]-6,7-dihydro-5H-benzo[5,6][1,4]diazepino[7,1-a]indole-10-carboxylic acid dihydrochloride], the IC50 was below 100 nM. Regarding `CCC1CCN(CCN2CCn3c(c(C4CCCCC4)c4ccc(C(=O)O)cc43)-c3ccccc32)C1` (stereo not shown) [Example 1-382, 13-cyclohexyl-5-[2-(3-ethylpyrrolidin-1-yl)ethyl]-6,7-dihydro-5H-benzo[5,6][1,4]diazepino[7,1-a]indole-10-carboxylic acid dihydrochloride], the IC50 is below 100 nM.

In turn, `CCC1CCN(CCN2CCn3c(c(C4CCCCC4)c4ccc(C(=O)O)cc43)-c3ccc(Cl)cc32)C1` (stereo not shown) [Example 1-383, 3-chloro-13-cyclohexyl-5-[2-(3-ethylpyrrolidin-1-yl)ethyl]-6,7-dihydro-5H-benzo[5,6][1,4]diazepino[7,1-a]indole-10-carboxylic acid dihydrochloride] came in with an IC50 below 100 nM. Regarding `CCC1CCN(CCN2CCn3c(c(C4CCCCC4)c4ccc(C(=O)O)cc43)-c3ccc(C)cc32)C1` (stereo not shown) [Example 1-384, 13-cyclohexyl-5-[2-(3-ethylpyrrolidin-1-yl)ethyl]-3-methyl-6,7-dihydro-5H-benzo[5,6][1,4]diazepino[7,1-a]indole-10-carboxylic acid dihydrochloride], the IC50 is below 100 nM. Same read-out and setting: in the case of `CC(C)COc1ccc2c(c1)N(CCC1CCCN(C(C)C)C1)CCn1c-2c(C2CCCCC2)c2ccc(C(=O)O)cc21` (stereo not shown) [Example 1-385, 13-cyclohexyl-3-isobutoxy-5-[2-(1-isopropylpiperidin-3-yl)ethyl]-6,7-dihydro-5H-benzo[5,6][1,4]diazepino[7,1-a]indole-10-carboxylic acid dihydrochloride] it was below 100 nM. `CCC(CC)N1CCCC(CCN2CCn3c(c(C4CCCCC4)c4ccc(C(=O)O)cc43)-c3ccc(Cl)cc32)C1` (stereo not shown) [Example 1-386, 3-chloro-13-cyclohexyl-5-{2-[1-(1-ethylpropyl)piperidin-3-yl]ethyl}-6,7-dihydro-5H-benzo[5,6][1,4]diazepino[7,1-a]indole-10-carboxylic acid dihydrochloride] displayed an IC50 below 100 nM. On the same count and under the same terms, in the case of `CCOCC1CCCN(CCN2CCn3c(c(C4CCCCC4)c4ccc(C(=O)O)cc43)-c3ccccc32)C1` (stereo not shown) [Example 1-387, 13-cyclohexyl-5-[2-(3-ethoxymethylpiperidin-1-yl)ethyl]-6,7-dihydro-5H-benzo[5,6][1,4]diazepino[7,1-a]indole-10-carboxylic acid dihydrochloride] it was below 100 nM. On to `CCC1CCCN(CCN2CCn3c(c(C4CCCC4)c4ccc(C(=O)O)cc43)-c3ccc(Cl)cc32)C1` (stereo not shown) [Example 1-389, 3-chloro-13-cyclopentyl-5-[2-(3-ethylpiperidin-1-yl)ethyl]-6,7-dihydro-5H-benzo[5,6][1,4]diazepino[7,1-a]indole-10-carboxylic acid], for which the IC50 under setting [1] is below 100 nM.

On to `COCC1CCCN(CCN2CCn3c(c(C4CCCC4)c4ccc(C(=O)O)cc43)-c3ccc(Cl)cc32)C1` (stereo not shown) [Example 1-390, 3-chloro-13-cyclopentyl-5-[2-(3-methoxymethylpiperidin-1-yl)ethyl]-6,7-dihydro-5H-benzo[5,6][1,4]diazepino[7,1-a]indole-10-carboxylic acid], for which the IC50 was below 100 nM. `CCOCC1CCCN(CCN2CCn3c(c(C4CCCCC4)c4ccc(C(=O)O)cc43)-c3ccc(Cl)cc32)C1` (stereo not shown) [Example 1-391, 3-chloro-13-cyclohexyl-5-[2-(3-ethoxymethylpiperidin-1-yl)ethyl]-6,7-dihydro-5H-benzo[5,6][1,4]diazepino[7,1-a]indole-10-carboxylic acid dihydrochloride] returned an IC50 below 100 nM. `CCOCC1CCCN(CCN2CCn3c(c(C4CCCCC4)c4ccc(C(=O)O)cc43)-c3ccc(C)cc32)C1` (stereo not shown) [Example 1-392, 13-cyclohexyl-5-[2-(3-ethoxymethylpiperidin-1-yl)ethyl]-3-methyl-6,7-dihydro-5H-benzo[5,6][1,4]diazepino[7,1-a]indole-10-carboxylic acid dihydrochloride]: the IC50 was below 100 nM. The same measure, in the same setting: next, `CC(C)OC1CCCN(CCN2CCn3c(c(C4CCCCC4)c4ccc(C(=O)O)cc43)-c3ccc(Cl)cc32)C1` (stereo not shown) [Example 1-393, 3-chloro-13-cyclohexyl-5-[2-(3-isopropoxypiperidin-1-yl)ethyl]-6,7-dihydro-5H-benzo[5,6][1,4]diazepino[7,1-a]indole-10-carboxylic acid monohydrochloride]: below 100 nM; `Cc1ccc2c(c1)N(CCN1CCCC(OC(C)C)C1)CCn1c-2c(C2CCCCC2)c2ccc(C(=O)O)cc21` (stereo not shown) [Example 1-394, 13-cyclohexyl-5-[2-(3-isopropoxypiperidin-1-yl)ethyl]-3-methyl-6,7-dihydro-5H-benzo[5,6][1,4]diazepino[7,1-a]indole-10-carboxylic acid monohydrochloride]: below 100 nM. Still for that read-out and setting: in the case of `CC(C)OC1CCCN(CCN2CCn3c(c(C4CCCCC4)c4ccc(C(=O)O)cc43)-c3ccccc32)C1` (stereo not shown) [Example 1-395, 13-cyclohexyl-5-[2-(3-isopropoxypiperidin-1-yl)ethyl]-6,7-dihydro-5H-benzo[5,6][1,4]diazepino[7,1-a]indole-10-carboxylic acid monohydrochloride] it was below 100 nM.

Consider `CC(C)N1CCCC(CCCN2CCn3c(c(C4CCCCC4)c4ccc(C(=O)O)cc43)-c3ccc(Cl)cc32)C1` (stereo not shown) [Example 1-396, 3-chloro-13-cyclohexyl-5-[3-(1-isopropylpiperidin-3-yl)propyl]-6,7-dihydro-5H-benzo[5,6][1,4]diazepino[7,1-a]indole-10-carboxylic acid dihydrochloride], for which the IC50 was below 100 nM. Same read-out and setting: in the case of `COCC[C@@H]1CCCN(CCN2CCn3c(c(C4CCCCC4)c4ccc(C(=O)O)cc43)-c3ccc(Cl)cc32)C1` [Example 1-397, 3-chloro-13-cyclohexyl-5-{2-[(S)-3-(2-methoxyethyl)piperidin-1-yl]ethyl}-6,7-dihydro-5H-benzo[5,6][1,4]diazepino[7,1-a]indole-10-carboxylic acid dihydrochloride] it was below 100 nM.
